{"source": "paper PMC10531759", "about": "“Key Amino Acid Residues Involved in Binding Interactions between Bactrocera minax Odorant-Binding Protein 3 (BminOBP3) and Undecanol” (Insects, 2023)", "key": {"[1]": {"target": "T1, BminOBP3 (wild-type protein) (Bactrocera minax, UniProt A0A3G2LEF2)", "T1 sequence (A0A3G2LEF2 27-115)": "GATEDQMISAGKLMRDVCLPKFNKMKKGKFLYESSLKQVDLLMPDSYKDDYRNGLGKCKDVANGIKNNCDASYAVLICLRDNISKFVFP", "assay": "Fluorescence competitive binding assay (1-NPN displacement by undecanol), wild-type protein", "conditions": "pH 5.0 compared with pH 7.4; Figure S8 and Table S3", "procedure": "(§1) In order to explore the binding affinities of BminOBP3 and its mutants to undecanol, the binding assays were conducted on a fluorescence spectrophotometer (F-7000; Hitachi, Japan) with parameters set same as the previous study. The fluorescent probe 1-NPN and undecanol were diluted in the HPLC methanol to 1 mM, whereas the protein samples were dissolved in 20 mM Tris-HCL pH 7.4 to obtain 2 μM protein solutions.\n(§2) To measure the dissociation constant (Kd) of 1-NPN to BminOBP3 and mutants, aliquots of 1 mM 1-NPN were added to the 2 μM protein solution with a final concentration of 1-NPN ranging from 0 to 22 μM, and the resulting fluorescence intensity values of the maximum fluorescence emission were recorded for the construction of binding curves and Scatchard plots. Bound 1-NPN was determined by fluorescence intensities with the assumption that the protein was 100% active, and it binds the ligands at a 1:1 stoichiometric ratio when saturated. […] The maximal fluorescence intensity values were plotted against undecanol concentrations. The inhibition constant (Ki) of each protein was calculated based on the following equation: Ki = [IC50]/(1 + [1-NPN]/K1-NPN). IC50 is the concentration of ligand halving initial fluorescence intensity; [1-NPN] is the free concentration of 1-NPN; and K1-NPN is the dissociation constant of the protein/1-NPN complex. […]"}, "[2]": {"target": "T2, T-OBP3 (mutant that lacks I116-P122 from the C-terminus of BminOBP3) (Bactrocera minax, UniProt A0A3G2LEF2)", "T2 sequence (A0A3G2LEF2 27-108)": "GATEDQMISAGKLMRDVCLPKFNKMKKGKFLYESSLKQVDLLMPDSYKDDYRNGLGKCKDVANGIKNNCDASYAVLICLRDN", "assay": "Fluorescence competitive binding assay (1-NPN displacement by undecanol), C-terminus truncated mutant", "conditions": "compared with wild-type protein", "procedure": "as §1, §2"}, "[3]": {"target": "T3, V120A (BminOBP3-V120A mutant) (Bactrocera minax, UniProt A0A3G2LEF2, V113A)", "T3 sequence (A0A3G2LEF2 27-115 V113A)": "T1 sequence (A0A3G2LEF2 27-115) with V87A", "assay": "Fluorescence competitive binding assay (1-NPN displacement by undecanol), V120A mutant", "conditions": "undecanol up to 36 μM", "procedure": "as §1, §2"}, "[4]": {"target": "T4, 3D2a (mutant that lacks F121 and P122 from the C-terminus of BminOBP3) (Bactrocera minax, UniProt A0A3G2LEF2)", "T4 sequence (A0A3G2LEF2 27-113)": "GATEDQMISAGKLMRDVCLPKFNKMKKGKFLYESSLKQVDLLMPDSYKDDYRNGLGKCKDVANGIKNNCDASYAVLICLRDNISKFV", "assay": "Fluorescence competitive binding assay (1-NPN displacement by undecanol), 3D2a mutant", "conditions": "undecanol up to 36 μM", "procedure": "as §1, §2"}, "[5]": {"system": "T57A (BminOBP3-T57A mutant)", "assay": "Fluorescence binding assay with undecanol, T57A mutant", "set-up": "species or system Bactrocera minax", "conditions": "Figure S7 and Table S2", "procedure": "as §1\nas §2, with “[1-NPN]/K1-NPN).” for “[1-NPN]/K1-NPN). IC50 is the concentration of ligand halving initial fluorescence intensity; [1-NPN] is the free concentration of 1-NPN; and K1-NPN is the dissociation constant of the protein/1-NPN complex.”\n(§3) (the information regarding 13 ligands see Supplemental Data Table S4). […] Conformation 3 was an effective conformation, which is shown in Figure 2A, as it was validated by subsequent mutagenesis studies and fluorescence binding assays. […]"}, "[6]": {"system": "Y84A (BminOBP3-Y84A mutant)", "assay": "Fluorescence binding assay with undecanol, Y84A mutant", "set-up": "species or system Bactrocera minax", "conditions": "Figure S7 and Table S2", "procedure": "as §1\nas §2, with “[1-NPN]/K1-NPN).” for “[1-NPN]/K1-NPN). IC50 is the concentration of ligand halving initial fluorescence intensity; [1-NPN] is the free concentration of 1-NPN; and K1-NPN is the dissociation constant of the protein/1-NPN complex.”\nas §3"}, "[7]": {"target": "T1, BminOBP3 (wild-type protein)", "set-up": "method as in PMID 34668560", "conditions": "competitive fluorescence binding experiments of previous study; cited from earlier work"}}, "note": "Residue numbers refer to the chain shown, from its start. Entries after “also recorded” stand apart in the source; their conditions may differ."}
{"smiles": "CCCCCCCCCCCO", "note": "[undecanol, 1-undecanol]", "values": [{"measurement": "affinity between BminOBP3 and undecanol at acidic pH (in words)", "setting": "[1]", "result": "significant decrease"}, {"measurement": "affinity for undecanol compared with BminOBP3 (in words)", "setting": "[2]", "result": "significant decrease"}, {"measurement": "binding to undecanol (in words)", "setting": "[3]", "result": "completely abolished; also recorded: completely lost their binding capacity"}, {"measurement": "binding to undecanol (in words)", "setting": "[4]", "result": "completely abolished; also recorded: completely lost their binding capacity"}, {"measurement": "affinity to undecanol compared with the wild-type protein (in words)", "setting": "[5]", "result": "obvious increase"}, {"measurement": "affinity to undecanol compared with the wild-type protein (in words)", "setting": "[6]", "result": "obvious increase"}, {"measurement": "binding affinity of BminOBP3 among 13 ligands tested (in words)", "setting": "[7]", "result": "strong binding affinity"}]}
